Reference: patent publication US6534514B1, “Kappa opioid receptor antagonists” (Regents of the University of Minnesota, priority 1993, dated 2003)
Read-outs that look alike come from different tables or passages of the source.

How the values were obtained:
kappa opioid receptors = target: T1, kappa opioid receptors (Cavia porcellus, UniProt P41144); experiment: Guinea pig ileal longitudinal muscle (GPI), antagonism of ethylketazocine (EK); assay type: cell-based; conditions: for Selectivity κ/μ: GPI EK versus GPI morphine; for Selectivity κ/δ: GPI EK versus MVD DADLE; for kappa antagonist potency compared with norBNI: GPI, EK; for Kb: 15 min incubation, Ke=[antagonist]/(IC50 ratio-1)
T1 construct: a strip of longitudinal muscle with the myenteric plexus attached was prepared; from tissue; host or cells: guinea pig ileal longitudinal muscle with myenteric plexus (Dunkin-Hartley males)
Protocol: (§1) Physiological data for guinea pig ileal longitudinal muscle (GPI) was obtained by the methodology of H. P. Rang, “Stimulant Actions of Volatile Anaesthetics on Smooth Muscle,” Brit. […] In vivo assays were done s.c. on mice.
(§2) 1. Guinea Pig Ileal Longitudinal Muscle (GPI). Ilea from guinea pigs were taken approximately 10 cm from the ileocecal junction, and a strip of longitudinal muscle with the myenteric plexus attached was prepared by the method of […] et al., Brit. […] A 1 cm portion of this strip was then mounted between two platinum electrodes placed in a 10 ml organ bath and connected to an isometric transducer; contractions were recorded on a polygraph. Contractions of the ileal strip were initiated by supramaximal rectangular pulses in all preparations (80 V of 0.5 ms duration at a frequency of 0.1 Hz). […] The organ bath was maintained at 36°-37° C. The longitudinal muscle strip was allowed to equilibrate with continuous stimulation for a minimum of 90 min. Cumulative concentration-response curves were determined after drugs were added to the bath in preselected amounts and washed out with buffer after noting their maximum effects.
(§3) Concentration-response curves were obtained in the absence (control) and the presence of the antagonist are expressed as IC50 values. The IC50 ratio represents the IC50 in the presence of the antagonist divided by the control IC50 value in the same tissue. Therefore, a high IC50 ratio represents a correspondingly high degree of antagonism at a particular receptor. This IC50 ratio was employed to calculate the Ke value using the equation Ke=[antagonist]/(IC50 ratio-1). Therefore, a low Ke represents a correspondingly high degree of binding at a particular receptor.

mu opioid receptors = conditions: agonist morphine
Protocol: as §1, §2, §3

delta opioid receptors = delta opioid receptors (Mus musculus, UniProt P32300); experiment: Mouse vas deferens (MVD), antagonism of DADLE (D); assay type: cell-based; design: Both vasa deferentia were dissected out of mice and mounted singly; from tissue; host or cells: mouse vas deferens (Swiss-Webster males) for A3; whole mouse in vivo for A7; conditions: antagonist 100 nM; agonist DADLE
Protocol: 2. Mouse Vas Deferens (MVD). This assay was performed according to the description by G. Henderson et al., Brit. […] Both vasa deferentia were dissected out of mice and mounted singly through two platinum ring electrodes in a 10 ml organ bath. The bath contained Krebs bicarbonate solution that was continuously bubbled with 95% O2 and 5% CO2. The organ bath was maintained at 37° C. The tissue was attached to an isometric transducer and stimulated transmurally with rectangular pulses ([…], 1 ms duration, supramaximal voltage). Drugs were added cumulatively to the bath in preselected amounts and washed out after noting their maximum effects.
as §3

[1] = recovering alcoholics; cited from earlier work
[2] = system: rats that were selectively bred for high voluntary ethanol drinking; conditions: compared to peptidyl delta-opioid receptor antagonists; cited from earlier work
delta opioid receptor = delta opioid receptor (Rattus norvegicus, UniProt P33533); conditions: cited from earlier work
rat model of alcoholism = conditions: cited from earlier work
[3] = antagonist 100 nM, agonist ethylketazocine
[4] = antagonist 100 nM, IC50 agonist + antagonist/IC50 agonist, agonist ethylketazocine
[5] = antagonist 10 nM, agonist ethylketazocine

T1 sequence (P41144 whole entry): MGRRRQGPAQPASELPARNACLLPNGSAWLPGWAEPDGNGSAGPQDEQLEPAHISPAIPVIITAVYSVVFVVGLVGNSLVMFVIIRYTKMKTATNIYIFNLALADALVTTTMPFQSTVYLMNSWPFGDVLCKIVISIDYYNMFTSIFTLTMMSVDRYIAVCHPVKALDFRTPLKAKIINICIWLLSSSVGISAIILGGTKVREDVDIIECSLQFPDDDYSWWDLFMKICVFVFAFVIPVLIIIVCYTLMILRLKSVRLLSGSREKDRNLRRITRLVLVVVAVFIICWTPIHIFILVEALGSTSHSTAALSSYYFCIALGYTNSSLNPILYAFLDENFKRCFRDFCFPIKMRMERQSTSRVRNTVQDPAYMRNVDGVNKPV
Chain of delta opioid receptors (P32300 whole entry): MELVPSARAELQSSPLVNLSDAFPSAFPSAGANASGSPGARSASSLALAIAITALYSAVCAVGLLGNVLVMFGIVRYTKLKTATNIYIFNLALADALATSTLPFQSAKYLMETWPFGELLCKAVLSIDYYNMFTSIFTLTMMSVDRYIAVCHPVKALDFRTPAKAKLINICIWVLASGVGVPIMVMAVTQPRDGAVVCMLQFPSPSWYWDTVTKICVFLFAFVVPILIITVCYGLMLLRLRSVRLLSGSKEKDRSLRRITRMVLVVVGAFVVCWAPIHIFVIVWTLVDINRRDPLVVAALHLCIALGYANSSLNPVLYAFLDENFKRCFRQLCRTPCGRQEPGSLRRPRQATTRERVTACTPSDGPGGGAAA
Chain of delta opioid receptor (P33533 whole entry): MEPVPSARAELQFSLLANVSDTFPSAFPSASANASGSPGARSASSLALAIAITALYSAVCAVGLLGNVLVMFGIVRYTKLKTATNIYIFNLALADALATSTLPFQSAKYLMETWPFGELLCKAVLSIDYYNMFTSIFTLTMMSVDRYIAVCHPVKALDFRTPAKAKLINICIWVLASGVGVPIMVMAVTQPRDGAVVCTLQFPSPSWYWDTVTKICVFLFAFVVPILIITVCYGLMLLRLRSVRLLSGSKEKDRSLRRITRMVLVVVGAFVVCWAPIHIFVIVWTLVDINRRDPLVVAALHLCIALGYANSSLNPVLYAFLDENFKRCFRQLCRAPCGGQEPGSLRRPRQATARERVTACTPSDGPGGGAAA

Molecule: 17-(Cyclopropylmethyl)-6,7-dehydro-4,5α-epoxy-3,14-dihydroxy-5′-[(N^2-3-methylpentanamidino)methyl]-6,7-2′,3′-indolomorphinan Dihydrochloride [Compound 2]
- Selectivity κ/μ (kappa opioid receptors): 12
- Selectivity κ/δ (kappa opioid receptors): 310
- kappa antagonist potency compared with norBNI (kappa opioid receptors): more potent
- Kb (kappa opioid receptors; [3]): 0.25 nM
- IC50 ratio, EK (GPI) (kappa opioid receptors; [4]): 394 ± 97
- IC50 ratio, M (GPI) (mu opioid receptors; antagonist 100 nM): 31.6 ± 10.7
- Ke, M (GPI) (mu opioid receptors; antagonist 100 nM): 3.27 nM
- IC50 ratio, D (MVD) (delta opioid receptors): 1.19 ± 0.51

Molecule: 17-(Cyclopropylmethyl)-6,7-dehydro-4,5α-epoxy-3,14-dihydroxy-5′-[N^2-(N,N-dimethylglycinamidino)methyl]-6,7-2′,3′-indolomorphinan Trihydrochloride [Compound 42]
- Selectivity κ/μ (kappa opioid receptors): 55
- Selectivity κ/δ (kappa opioid receptors): 111
- kappa antagonist potency compared with norBNI (kappa opioid receptors): more potent
- kappa selectivity compared with norBNI (kappa opioid receptors; GPI/MVD): more selective
- potency and selectivity compared with norBNI (kappa opioid receptors; GPI/MVD): more potent and selective
- Kb (kappa opioid receptors; [3]): 0.183 nM
- IC50 ratio, EK (GPI) (kappa opioid receptors; [4]): 547 ± 125
- IC50 ratio, M (GPI) (mu opioid receptors; antagonist 100 nM): 10.0 ± 0.4
- Ke, M (GPI) (mu opioid receptors; antagonist 100 nM): 11.1 nM
- IC50 ratio, D (MVD) (delta opioid receptors): 4.91 ± 1.38
- Ke, D (MVD) (delta opioid receptors): 25.6 nM

Molecule: 17-(Cyclopropylmethyl)-6,7-dehydro-4,5α-epoxy-3,14-dihydroxy-5′-[N-(β-dimethylamino)ethylcarboxamido]-6,7-2′,3′-indolomorphinan Dihydrochloride [Compound 45]
- Selectivity κ/μ (kappa opioid receptors): 6
- Selectivity κ/δ (kappa opioid receptors): 117
- Kb (kappa opioid receptors; [3]): 0.568 nM
- IC50 ratio, EK (GPI) (kappa opioid receptors; [4]): 177 ± 54
- IC50 ratio, M (GPI) (mu opioid receptors; antagonist 100 nM): 30.3 ± 3.6
- Ke, M (GPI) (mu opioid receptors; antagonist 100 nM): 3.41 nM
- IC50 ratio, D (MVD) (delta opioid receptors): 1.51 ± 0.42

Molecule: Oc1ccc2c3c1OC1c4[nH]c5c(c4CC4(O)C(C2)N(CC2CC2)CC[C@]314)C[C@@]1(O)C2Cc3ccc(O)c4c3[C@@]1(CCN2CC1CC1)[C@H]5O4 (some centres unmarked) [norBinaltorphimine, reference compound]
- Kb (kappa opioid receptors; [3]): 0.56 nM
- Ke, M (GPI) (mu opioid receptors; antagonist 100 nM): 14 nM

Molecule: 17-(Cyclopropylmethyl)-6,7-dehydro-4,5α-epoxy-3,14-dihydroxy-5′-[(N^2-acetamidino)methyl]-6,7-2′,3′-indolomorphinan Dihydrochloride [Compound 3]
- Selectivity κ/μ (kappa opioid receptors): 9
- Selectivity κ/δ (kappa opioid receptors): 44
- Kb (kappa opioid receptors; [3]): 0.81 nM
- IC50 ratio, EK (GPI) (kappa opioid receptors; [4]): 124 ± 33
- IC50 ratio, M (GPI) (mu opioid receptors; antagonist 100 nM): 13.4 ± 2.2
- Ke, M (GPI) (mu opioid receptors; antagonist 100 nM): 8.04 nM
- IC50 ratio, D (MVD) (delta opioid receptors): 2.81 ± 0.62

Molecule: 17-(Cyclopropylmethyl)-6,7-dehydro-4,5α-epoxy-3,14-dihydroxy-51′-[(4-dimethylaminobutyryl)aminomethyl]-6,7-2′,3′-indolomorphinan Dihydrochloride [Compound 43]
- Selectivity κ/μ (kappa opioid receptors): 10
- Selectivity κ/δ (kappa opioid receptors): 166
- kappa antagonist potency compared with norBNI (kappa opioid receptors): more potent
- Kb (kappa opioid receptors; [3]): 0.505 nM
- IC50 ratio, EK (GPI) (kappa opioid receptors; [4]): 199 ± 62
- IC50 ratio, M (GPI) (mu opioid receptors; antagonist 100 nM): 19.0 ± 6.2
- Ke, M (GPI) (mu opioid receptors; antagonist 100 nM): 5.56 nM
- IC50 ratio, D (MVD) (delta opioid receptors): 1.20 ± 0.72

Molecule: O=C1CC[C@@]2(O)[C@H]3Cc4ccc(O)c5c4[C@@]2(CCN3CC2CC2)[C@H]1O5 [naltrexone]
- incidence of relapse [1]: reduce the incidence of relapse

Molecule: Oc1ccc2c3c1O[C@H]1c4oc5ccccc5c4C[C@@]4(O)[C@@H](C2)N(CC2CC2)CC[C@]314 [NTB]
- suppression of ethanol drinking [2]: unexpectedly prolonged suppression of ethanol drinking

Molecule: 17-(Cyclopropylmethyl)-6,7-dehydro-4,5α-epoxy-3,14-dihydroxy-5′-[(N^2-butyramidino)methy]-6,7-2′,3′-indolomorphinan Dihydrochloride [Compound 5]
- Selectivity κ/μ (kappa opioid receptors): 10
- Selectivity κ/δ (kappa opioid receptors): 62
- kappa antagonist potency compared with norBNI (kappa opioid receptors): more potent
- Kb (kappa opioid receptors; [3]): 0.54 nM
- IC50 ratio, EK (GPI) (kappa opioid receptors; [4]): 185 ± 49
- IC50 ratio, M (GPI) (mu opioid receptors; antagonist 100 nM): 18.2 ± 3.9
- Ke, M (GPI) (mu opioid receptors; antagonist 100 nM): 5.84 nM
- IC50 ratio, D (MVD) (delta opioid receptors): 3.00 ± 0.51

Molecule: N,N-diallyl-Tyr-Aib-Aib-Phe-Leu-OH [ICI 174864]
- duration of action (delta opioid receptor; ethanol drinking): very short duration of action
- ethanol drinking (delta opioid receptor; in vivo): strongly inhibits ethanol drinking

Molecule: C=CCN1CC[C@]23c4c5ccc(O)c4O[C@H]2C(=O)CC[C@@]3(O)[C@H]1C5 [Naloxone, naloxone]
- ethanol and water intake (rat model of alcoholism): suppress ethanol but not water intake

Molecule: Oc1ccc2c3c1O[C@H]1c4[nH]c5ccccc5c4C[C@@]4(O)[C@@H](C2)N(CC2CC2)CC[C@]314 [NTI, naltrindole]
- suppression of ethanol drinking [2]: unexpectedly prolonged suppression of ethanol drinking

Molecule: 17-(Cyclopropylmethyl)-6,7-dehydro-4,5α-epoxy-3,14-dihydroxy-5′-[(N^2-propanamidino)methyl]-6,7-2′,3′-indolomorphinan Dihydrochloride [Compound 1]
- Selectivity κ/μ (kappa opioid receptors): 14
- Selectivity κ/δ (kappa opioid receptors): 69
- Kb (kappa opioid receptors; [3]): 0.66 nM
- IC50 ratio, EK (GPI) (kappa opioid receptors; [4]): 159 ± 43
- IC50 ratio, M (GPI) (mu opioid receptors; antagonist 100 nM): 11.3 ± 2.6
- Ke, M (GPI) (mu opioid receptors; antagonist 100 nM): 9.71 nM
- IC50 ratio, D (MVD) (delta opioid receptors): 2.28 ± 0.57

Molecule: 17-(Cyclopropylmethyl)-6,7-dehydro-4,5α-epoxy-3,14-dihydroxy-5 ′-[N^2-(4-dimethylaminobutyrylamidino)methyl]-6,7-2′,3′-indolomorphinan Trihydrochloride [Compound 44]
- Selectivity κ/μ (kappa opioid receptors): 61
- Selectivity κ/δ (kappa opioid receptors): 250
- kappa antagonist potency compared with norBNI (kappa opioid receptors): more potent
- kappa selectivity compared with norBNI (kappa opioid receptors; GPI/MVD): more selective
- potency and selectivity among the compounds (kappa opioid receptors; GPI/MVD): greatest poteny and selectivity
- potency and selectivity compared with norBNI (kappa opioid receptors; GPI/MVD): more potent and selective
- Kb (kappa opioid receptors; [3]): 0.147 nM
- IC50 ratio, EK (GPI) (kappa opioid receptors; [4]): 679 ± 273
- IC50 ratio, M (GPI) (mu opioid receptors; antagonist 100 nM): 12.1 ± 3.4
- Ke, M (GPI) (mu opioid receptors; antagonist 100 nM): 9.01 nM
- IC50 ratio, D (MVD) (delta opioid receptors): 2.71 ± 0.44

Molecule: 17-(Cyclopropylmethyl)-6,7-dehydro-4,5α-epoxy-3,14-dihydroxy-5′-[N-(β-diethylamino)ethylcarboxyamido]-6,7-2′,3′-indolomorphinan Dihydrochloride [Compound 38]
- Selectivity κ/μ (kappa opioid receptors): 16
- Selectivity κ/δ (kappa opioid receptors): 329
- kappa antagonist potency compared with norBNI (kappa opioid receptors): more potent
- IC50 ratio, EK (GPI) (kappa opioid receptors; [5]): 31.8 ± 7.7
- Ke, EK (GPI) (kappa opioid receptors; [5]): (10 nm) 0.320 nM
- IC50 ratio, M (GPI) (mu opioid receptors; antagonist 50 nM): 17.1 ± 2.1
- Ke, M (GPI) (mu opioid receptors; antagonist 50 nM): (50 nm) 3.14 nM
- IC50 ratio, D (MVD) (delta opioid receptors): 1.95 ± 0.56
